Assay results taken from patent US20150105252A1, “SUBSTITUTED PYRAZOLES AS HERBICIDES” (E I DU PONT DE NEMOURS AND COMPANY, priority 2013, published 2015).

Key:
Russian thistle = assay: Test C preemergence; format: in vivo, Salsola kali; conditions: for Plant response rating (scale of 0 to 100), Russian Thistle: Preemergence, 250 g ai/ha; for Russian Thistle plant response rating / Plant response rating, Russian Thistle: preemergence; for Plant response rating, Russian Thistle: 62 g ai/ha, scale 0 to 100, 0 = no effect, 100 = complete control
Source text: Seeds of plant species selected from blackgrass (Alopecurus myosuroides), ryegrass, Italian (Italian ryegrass, Lolium multiflorum), wheat (winter wheat, Triticum aestivum), galium (catchweed bedstraw, Galium aparine), corn (Zea mays), crabgrass, large (large crabgrass, Digitaria sanguinalis), foxtail, giant (giant foxtail, Setaria faberii), johnsongrass (Sorghum halepense), lambsquarters (Chenopodium album), morningglory (Ipomoea coccinea), nutsedge, yellow (yellow nutsedge, Cyperus esculentus), pigweed (redroot pigweed, Amaranthus retroflexus), ragweed (common ragweed, Ambrosia elation), soybean (Glycine max), barnyardgrass (Echinochloa crus-galli), oilseed rape (Brassica napus), waterhemp (common waterhemp, Amaranthus rudis), oat, wild (wild oat, Avena fatua), kochia (Kochia scoparia), Surinam grass (Brachiaria decumbens), foxtail, green (green foxtail, Setaria viridis), goosegrass (Eleusine indica), bromegrass, downy (downy bromegrass, Bromus tectorum), nightshade (eastern black nightshade, Solanum ptycanthum), cocklebur (common cocklebur, Xanthium strumarium), cupgrass, woolly (woolly cupgrass, Eriochloa villosa), bermudagrass (Cynodon dactylon), sunflower, (common oilseed sunflower, Helianthus annuus), Russian thistle (Salsola kali), and velvetleaf (Abutilon theophrasti) were planted into a blend of loam soil and sand and treated preemergence with test chemicals formulated in a non-phytotoxic solvent mixture which included a surfactant.
At the same time, plants selected from these crop and weed species and also chickweed (common chickweed, Stellaria media), canarygrass (littleseed canarygrass, Phalaris minor), and deadnettle (henbit deadnettle, Lamium amplexicaule), were planted in pots containing Redi-Earth® planting medium (Scotts Company, 14111 Scottslawn Road, Marysville, Ohio 43041) comprising spaghnum peat moss, vermiculite, wetting agent and starter nutrients and treated with postemergence applications of test chemicals formulated in the same manner. Plants ranged in height from 2 to 18 cm (1- to 4-leaf stage) for postemergence treatments. Treated plants and controls were maintained in a greenhouse for 13 to 15 days, after which time all species were compared to controls and visually evaluated. Plant response ratings, summarized in Table C, are based on a scale of 0 to 100 where 0 is no effect and 100 is complete control. A dash (-) response means no test result.

Italian ryegrass = assay: Test F postemergence; format: in vivo, Lolium multiflorum; conditions: Postemergence, scale 0 to 100
Source text: (§1) Seeds of plant species selected from corn (Zea mays), soybean (Glycine max), velvetleaf (Abutilon theophrasti), lambsquarters (Chenopodium album), wild poinsettia (Euphorbia heterophylla), pigweed, palmer (palmer pigweed, Amaranthus palmeri), common waterhemp (Amaranthus rudis), surinam grass (Brachiaria decumbens), large crabgrass (Digitaria sanguinalis), crabgrass, Brazil (Brazilian crabgrass, Digitaria horizontalis), fall panicum (Panicum dichotomiflorum), giant foxtail (Setaria faberii), green foxtail (Setaria viridis), goosegrass (Eleusine indica), johnsongrass (Sorghum halepense), common ragweed (Ambrosia elation), barnyardgrass (Echinochloa crus-galli), southern sandbur (Cenchrus echinatus), arrowleaf sida (Sida rhombifolia), Italian ryegrass (Lolium multiflorum), dayflower, VA (Virginia (VA) dayflower, Commelina virginica), field bindweed (Convolvulus arvensis), cocklebur (common cocklebur, Xanthium strumarium), morningglory (Ipomoea coccinea), nightshade (eastern black nightshade, Solanum ptycanthum), kochia (Kochia scoparia), yellow nutsedge (Cyperus esculentus), and hairy beggarticks (Bidens pilosa), were planted into a silt loam soil and treated preemergence with test chemicals formulated in a non-phytotoxic solvent mixture which included a surfactant.
(§2) At the same time, plants from these crop and weed species and also horseweed (Canada horseweed, Conyza canadensis), smartweed (ladysthumb smartweed, Polygonum persicaria), waterhemp_RES1, (ALS & Triazine resistant common waterhemp, Amaranthus rudis), and waterhemp_RES2, (ALS & HPPD resistant common waterhemp, Amaranthus rudis) were treated with postemergence applications of test chemicals formulated in the same manner. Plants ranged in height from 2 to 18 cm for postemergence treatments (1- to 4-leaf stage). Treated plants and controls were maintained in a greenhouse for 14 to 21 days, after which time all species were compared to controls and visually evaluated. Plant response ratings, summarized in Table F, are based on a scale of 0 to 100 where 0 is no effect and 100 is complete control. A dash (-) response means no test result.

smartweed = assay: Test F postemergence; format: in vivo, Polygonum persicaria; conditions: Postemergence, scale 0 to 100
Source text: as §1, §2

[1] = tested on: waterhemp_RES2 (ALS & HPPD resistant common waterhemp); assay: Test F postemergence; format: in vivo, Amaranthus rudis; conditions: Postemergence, scale 0 to 100
Source text: as §1, §2

common waterhemp = assay: Test F postemergence; format: in vivo, Amaranthus rudis; conditions: Postemergence, scale 0 to 100
Source text: as §1, §2

pigweed, palmer = assay: Test F postemergence; format: in vivo, Amaranthus palmeri; conditions: Postemergence, scale 0 to 100
Source text: as §1, §2

barnyardgrass = assay: Test F postemergence; format: in vivo, Echinochloa crus-galli; conditions: Postemergence, scale 0 to 100
Source text: as §1, §2

field bindweed = assay: Test F postemergence; format: in vivo, Convolvulus arvensis; conditions: Postemergence, scale 0 to 100
Source text: as §1, §2

soybean = assay: Test F postemergence; format: in vivo, Glycine max; conditions: Postemergence, scale 0 to 100
Source text: as §1, §2

crabgrass, Brazil = assay: Test F postemergence; format: in vivo, Digitaria horizontalis; conditions: Postemergence, scale 0 to 100
Source text: as §1, §2

hairy beggarticks = assay: Test F postemergence; format: in vivo, Bidens pilosa; conditions: Postemergence, scale 0 to 100
Source text: as §1, §2

dayflower, VA = assay: Test F postemergence; format: in vivo, Commelina virginica; conditions: Postemergence, scale 0 to 100
Source text: as §1, §2

[2] = 31 g ai/ha, scale 0 to 100 (0 no effect, 100 complete control), 13 to 15 days
[3] = 125 g ai/ha, scale 0 to 100, 0 is no effect, 100 is complete control

With `CCc1cc(C(=O)NOC(C)C)nn1Cc1cccc(OC(F)(F)F)c1` [Compound 70] the “Plant response rating (scale of 0 to 100), Russian Thistle” value (Russian thistle) was 80, the “Russian Thistle plant response rating” value (Russian thistle; [2]) was 65 and the “Plant response rating, Russian Thistle” value (Russian thistle; 13 to 15 days) was 75. The “Russian Thistle plant response rating” value (Russian thistle; [3]) was 75.
With `CCONC(=O)c1cc(CC)n(Cc2cccc(OC(F)(F)F)c2)n1` [Compound 72] the “Plant response rating (scale of 0 to 100), Russian Thistle” value (Russian thistle) was 95, the “Russian Thistle plant response rating” value (Russian thistle; [2]) was 5 and the “Plant response rating, Russian Thistle” value (Russian thistle; 13 to 15 days) was 90. For the same molecule, the “Russian Thistle plant response rating” value (Russian thistle; [3]) was 95.
In the case of `CCCNC(=O)c1cc(CC)n(Cc2nc(C(F)(F)F)nn2C)n1` [Compound 109], the “Plant response rating, Italian Ryegrass” value (Italian ryegrass; 16 g ai/ha) is reported as 0, the “Plant response rating, Italian Ryegrass” value (Italian ryegrass; 31 g ai/ha) is reported as 0 and the “Plant response rating, Italian Ryegrass” value (Italian ryegrass; 125 g ai/ha) is reported as 15. For the same molecule, the “Plant response rating, Italian Ryegrass” value (Italian ryegrass; 250 g ai/ha) was 30, the “Plant response rating, Smartweed” value (smartweed; 16 g ai/ha) was 20 and the “Plant response rating, Smartweed” value (smartweed; 31 g ai/ha) was 50. For the same molecule, the “Plant response rating, Smartweed” value (smartweed; 125 g ai/ha) was 70, the “Plant response rating, Smartweed” value (smartweed; 250 g ai/ha) was 80 and the “Plant response rating, Waterhemp_RES2” value ([1]; 16 g ai/ha) was 30. The “Plant response rating, Waterhemp_RES2” value ([1]; 31 g ai/ha) was 50, the “Plant response rating, Waterhemp_RES2” value ([1]; 125 g ai/ha) was 60 and the “Plant response rating, Waterhemp_RES2” value ([1]; 250 g ai/ha) was 70. For the same molecule, the “Plant response rating, Common Waterhemp” value (common waterhemp; 16 g ai/ha) was 50, the “Plant response rating, Common Waterhemp” value (common waterhemp; 31 g ai/ha) was 50 and the “Plant response rating, Common Waterhemp” value (common waterhemp; 125 g ai/ha) was 75. For the same molecule, the “Plant response rating, Common Waterhemp” value (common waterhemp; 250 g ai/ha) was 80, the “Plant response rating, Pigweed, Palmer” value (pigweed, palmer; 16 g ai/ha) was 30 and the “Plant response rating, Pigweed, Palmer” value (pigweed, palmer; 31 g ai/ha) was 50. For the same molecule, the “Plant response rating, Pigweed, Palmer” value (pigweed, palmer; 125 g ai/ha) was 60, the “Plant response rating, Pigweed, Palmer” value (pigweed, palmer; 250 g ai/ha) was 70 and the “Plant response rating, Barnyardgrass” value (barnyardgrass; 16 g ai/ha) was 0. For the same molecule, the “Plant response rating, Barnyardgrass” value (barnyardgrass; 31 g ai/ha) was 0, the “Plant response rating, Barnyardgrass” value (barnyardgrass; 125 g ai/ha) was 30 and the “Plant response rating, Barnyardgrass” value (barnyardgrass; 250 g ai/ha) was 50. The “Plant response rating, Field Bindweed” value (field bindweed; 16 g ai/ha) was 30, the “Plant response rating, Field Bindweed” value (field bindweed; 31 g ai/ha) was 40 and the “Plant response rating, Field Bindweed” value (field bindweed; 125 g ai/ha) was 50. For the same molecule, the “Plant response rating, Field Bindweed” value (field bindweed; 250 g ai/ha) was 80, the “Plant response rating, Soybean” value (soybean; 16 g ai/ha) was 50 and the “Plant response rating, Soybean” value (soybean; 31 g ai/ha) was 70. The “Plant response rating, Soybean” value (soybean; 125 g ai/ha) was 95, the “Plant response rating, Soybean” value (soybean; 250 g ai/ha) was 95 and the “Plant response rating, Crabgrass, Brazil” value (crabgrass, Brazil; 16 g ai/ha) was 10. For the same molecule, the “Plant response rating, Crabgrass, Brazil” value (crabgrass, Brazil; 31 g ai/ha) was 10, the “Plant response rating, Crabgrass, Brazil” value (crabgrass, Brazil; 125 g ai/ha) was 40 and the “Plant response rating, Crabgrass, Brazil” value (crabgrass, Brazil; 250 g ai/ha) was 70. For the same molecule, the “Plant response rating, Hairy Beggarticks” value (hairy beggarticks; 16 g ai/ha) was 35, the “Plant response rating, Hairy Beggarticks” value (hairy beggarticks; 31 g ai/ha) was 45 and the “Plant response rating, Hairy Beggarticks” value (hairy beggarticks; 125 g ai/ha) was 50. The “Plant response rating, Hairy Beggarticks” value (hairy beggarticks; 250 g ai/ha) was 60, the “Plant response rating, Dayflower, VA” value (dayflower, VA; 16 g ai/ha) was 15 and the “Plant response rating, Dayflower, VA” value (dayflower, VA; 31 g ai/ha) was 20. For the same molecule, the “Plant response rating, Dayflower, VA” value (dayflower, VA; 125 g ai/ha) was 40 and the “Plant response rating, Dayflower, VA” value (dayflower, VA; 250 g ai/ha) was 70.
